Measurements: PubChem BioAssay (NCI)
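96-well plates; 48 h exposure; 5 concentrations. Endpoints by linear interpolation between flanking doses. Not reached: highest tested concentration assigned. TGI denotes the concentration required for complete inhibition of growth.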

Legend:
Assay in all cases: growth of human tumour cells (NCI), 48 h
SR leukemia = test system: SR leukemia
UACC-257 melanoma = test system: UACC-257 melanoma
KM12 colon = test system: KM12 colon
HOP-62 NSCLC = test system: HOP-62 NSCLC
SK-MEL-28 melanoma = test system: SK-MEL-28 melanoma
MDA-N = test system: MDA-N
MDA-MB-231 breast = test system: MDA-MB-231 breast
MALME-3M melanoma = test system: MALME-3M melanoma
HL-60(TB) leukemia = test system: HL-60(TB) leukemia
SF-295 CNS = test system: SF-295 CNS
SF-539 CNS = test system: SF-539 CNS
NCI/ADR-RES ovarian = test system: NCI/ADR-RES ovarian
K-562 leukemia = test system: K-562 leukemia
OVCAR-3 ovarian = test system: OVCAR-3 ovarian
EKVX NSCLC = test system: EKVX NSCLC
DU-145 prostate = test system: DU-145 prostate
SK-MEL-2 melanoma = test system: SK-MEL-2 melanoma
MDA-MB-435 = test system: MDA-MB-435
COLO 205 colon = test system: COLO 205 colon
SN12C renal = test system: SN12C renal
CAKI-1 renal = test system: CAKI-1 renal
HCT-116 colon = test system: HCT-116 colon
HCT-15 colon = test system: HCT-15 colon
SK-OV-3 ovarian = test system: SK-OV-3 ovarian
U251 CNS = test system: U251 CNS
BT-549 breast = test system: BT-549 breast
SNB-75 CNS = test system: SNB-75 CNS
SNB-19 CNS = test system: SNB-19 CNS
HS 578T breast = test system: HS 578T breast
T-47D breast = test system: T-47D breast
UACC-62 melanoma = test system: UACC-62 melanoma
NCI-H226 lung = test system: NCI-H226 lung
UO-31 renal = test system: UO-31 renal
CCRF-CEM leukemia = test system: CCRF-CEM leukemia
ACHN renal = test system: ACHN renal
OVCAR-8 ovarian = test system: OVCAR-8 ovarian
IGROV1 ovarian = test system: IGROV1 ovarian
786-0 renal = test system: 786-0 renal
MCF7 breast = test system: MCF7 breast
MOLT-4 leukemia = test system: MOLT-4 leukemia
LOX IMVI melanoma = test system: LOX IMVI melanoma
PC-3 prostate = test system: PC-3 prostate
TK-10 renal = test system: TK-10 renal
HOP-92 NSCLC = test system: HOP-92 NSCLC
SK-MEL-5 melanoma = test system: SK-MEL-5 melanoma
NCI-H460 lung = test system: NCI-H460 lung
HCC-2998 colon = test system: HCC-2998 colon
HT29 colon = test system: HT29 colon
SW-620 colon = test system: SW-620 colon
RXF 393 renal = test system: RXF 393 renal
M14 melanoma = test system: M14 melanoma
NCI-H23 lung = test system: NCI-H23 lung
RPMI-8226 leukemia = test system: RPMI-8226 leukemia
OVCAR-5 ovarian = test system: OVCAR-5 ovarian
OVCAR-4 ovarian = test system: OVCAR-4 ovarian
SF-268 CNS = test system: SF-268 CNS
NCI-H522 lung = test system: NCI-H522 lung
A549 NSCLC = test system: A549 NSCLC
A498 renal = test system: A498 renal

`C[C@@H]1S[C@H](c2ccccc2F)N2Cc3ccccc3N=C12` showed a TGI (SR leukemia) of 36.9 µM, a TGI (UACC-257 melanoma) of 85.7 µM and a TGI (KM12 colon) of over 100 µM. The TGI (HOP-62 NSCLC) was over 100 µM, the TGI (SK-MEL-28 melanoma) was over 100 µM and the TGI (MDA-N) was 48.4 µM. For the same compound, the TGI (MDA-MB-231 breast) was over 100 µM, the TGI (MALME-3M melanoma) was 54.2 µM and the TGI (HL-60(TB) leukemia) was 52.3 µM. It also gave a TGI (SF-295 CNS) of over 100 µM, a TGI (SF-539 CNS) of over 100 µM and a TGI (NCI/ADR-RES ovarian) of 99.3 µM. The TGI (K-562 leukemia) was 65.9 µM, the TGI (OVCAR-3 ovarian) was over 100 µM and the TGI (EKVX NSCLC) was 95.9 µM. It also gave a TGI (DU-145 prostate) of over 100 µM, a TGI (SK-MEL-2 melanoma) of 34.7 µM and a TGI (MDA-MB-435) of 88.5 µM. It also gave a TGI (COLO 205 colon) of over 100 µM, a TGI (SN12C renal) of 42.2 µM and a TGI (CAKI-1 renal) of over 100 µM. The TGI (HCT-116 colon) was 42.2 µM, the TGI (HCT-15 colon) was over 100 µM and the TGI (SK-OV-3 ovarian) was 85.1 µM. The TGI (U251 CNS) was over 100 µM, the TGI (BT-549 breast) was over 100 µM and the TGI (SNB-75 CNS) was 97.4 µM. It also gave a TGI (SNB-19 CNS) of over 100 µM, a TGI (HS 578T breast) of over 100 µM and a TGI (T-47D breast) of 91.4 µM. It also gave a TGI (UACC-62 melanoma) of 54.8 µM, a TGI (NCI-H226 lung) of over 100 µM and a TGI (UO-31 renal) of 54 µM. For the same compound, the TGI (CCRF-CEM leukemia) was over 100 µM, the TGI (ACHN renal) was over 100 µM and the TGI (OVCAR-8 ovarian) was over 100 µM. It also gave a TGI (IGROV1 ovarian) of over 100 µM, a TGI (786-0 renal) of 63.1 µM and a TGI (MCF7 breast) of over 100 µM. For the same compound, the TGI (MOLT-4 leukemia) was 46.7 µM, the TGI (LOX IMVI melanoma) was 38.1 µM and the TGI (PC-3 prostate) was 97.1 µM. The TGI (TK-10 renal) was 94.2 µM, the TGI (HOP-92 NSCLC) was 65 µM and the TGI (SK-MEL-5 melanoma) was 32.5 µM. For the same compound, the TGI (NCI-H460 lung) was over 100 µM, the TGI (HCC-2998 colon) was 40.9 µM and the TGI (HT29 colon) was 86.6 µM. It also gave a TGI (SW-620 colon) of over 100 µM, a TGI (RXF 393 renal) of 83.9 µM and a TGI (M14 melanoma) of 48.7 µM. It also gave a TGI (NCI-H23 lung) of over 100 µM, a TGI (RPMI-8226 leukemia) of 44.4 µM and a TGI (OVCAR-5 ovarian) of over 100 µM. It also gave a TGI (OVCAR-4 ovarian) of 85.4 µM, a TGI (SF-268 CNS) of over 100 µM and a TGI (NCI-H522 lung) of 51.6 µM. The TGI (A549 NSCLC) was over 100 µM.
With `O=C(O)C(SC1=NNC2(C(=O)N1)c1ccccc1-c1ccccc12)SC1=NNC2(C(=O)N1)c1ccccc1-c1ccccc12` the TGI (UACC-257 melanoma) was over 10 µM, the TGI (KM12 colon) was over 10 µM and the TGI (HOP-62 NSCLC) was over 10 µM. It also gave a TGI (SK-MEL-28 melanoma) of over 10 µM, a TGI (MDA-N) of over 10 µM and a TGI (MDA-MB-231 breast) of over 10 µM. The TGI (MALME-3M melanoma) was over 10 µM, the TGI (HL-60(TB) leukemia) was over 10 µM and the TGI (SF-295 CNS) was over 10 µM. It also gave a TGI (SF-539 CNS) of over 10 µM, a TGI (NCI/ADR-RES ovarian) of over 10 µM and a TGI (K-562 leukemia) of over 10 µM. It also gave a TGI (OVCAR-3 ovarian) of over 10 µM, a TGI (EKVX NSCLC) of over 10 µM and a TGI (DU-145 prostate) of over 10 µM. It also gave a TGI (SK-MEL-2 melanoma) of over 10 µM, a TGI (MDA-MB-435) of over 10 µM and a TGI (COLO 205 colon) of over 10 µM. It also gave a TGI (SN12C renal) of over 10 µM, a TGI (CAKI-1 renal) of over 10 µM and a TGI (HCT-116 colon) of over 10 µM. It also gave a TGI (HCT-15 colon) of over 10 µM, a TGI (SK-OV-3 ovarian) of over 10 µM and a TGI (U251 CNS) of over 10 µM. For the same compound, the TGI (BT-549 breast) was over 10 µM, the TGI (SNB-75 CNS) was over 10 µM and the TGI (SNB-19 CNS) was over 10 µM. For the same compound, the TGI (HS 578T breast) was over 10 µM, the TGI (T-47D breast) was over 10 µM and the TGI (UACC-62 melanoma) was over 10 µM. It also gave a TGI (NCI-H226 lung) of over 10 µM, a TGI (UO-31 renal) of over 10 µM and a TGI (CCRF-CEM leukemia) of over 10 µM. It also gave a TGI (ACHN renal) of over 10 µM, a TGI (OVCAR-8 ovarian) of over 10 µM and a TGI (IGROV1 ovarian) of over 10 µM. It also gave a TGI (786-0 renal) of over 10 µM, a TGI (MCF7 breast) of over 10 µM and a TGI (MOLT-4 leukemia) of over 10 µM. It also gave a TGI (LOX IMVI melanoma) of over 10 µM, a TGI (PC-3 prostate) of over 10 µM and a TGI (TK-10 renal) of over 10 µM. The TGI (HOP-92 NSCLC) was over 10 µM, the TGI (SK-MEL-5 melanoma) was over 10 µM and the TGI (NCI-H460 lung) was over 10 µM. The TGI (HCC-2998 colon) was over 10 µM, the TGI (HT29 colon) was over 10 µM and the TGI (SW-620 colon) was over 10 µM. For the same compound, the TGI (RXF 393 renal) was over 10 µM, the TGI (M14 melanoma) was over 10 µM and the TGI (NCI-H23 lung) was over 10 µM. For the same compound, the TGI (A498 renal) was over 10 µM, the TGI (RPMI-8226 leukemia) was over 10 µM and the TGI (OVCAR-5 ovarian) was over 10 µM. For the same compound, the TGI (OVCAR-4 ovarian) was over 10 µM, the TGI (SF-268 CNS) was over 10 µM and the TGI (NCI-H522 lung) was over 10 µM. The TGI (A549 NSCLC) was over 10 µM.
Work on `S=c1[nH]c2ccc(Br)cc2c(=S)s1` yielded a TGI (SR leukemia) of over 100 µM, a TGI (UACC-257 melanoma) of 69.5 µM and a TGI (KM12 colon) of over 100 µM. It also gave a TGI (HOP-62 NSCLC) of over 100 µM, a TGI (SK-MEL-28 melanoma) of over 100 µM and a TGI (MDA-N) of 54 µM. The TGI (MDA-MB-231 breast) was 63.7 µM, the TGI (MALME-3M melanoma) was over 100 µM and the TGI (HL-60(TB) leukemia) was 62.4 µM. The TGI (SF-295 CNS) was 85.1 µM, the TGI (SF-539 CNS) was over 100 µM and the TGI (NCI/ADR-RES ovarian) was over 100 µM. For the same compound, the TGI (K-562 leukemia) was over 100 µM, the TGI (OVCAR-3 ovarian) was over 100 µM and the TGI (EKVX NSCLC) was 91.3 µM. It also gave a TGI (DU-145 prostate) of over 100 µM, a TGI (SK-MEL-2 melanoma) of 61.8 µM and a TGI (MDA-MB-435) of 67.2 µM. The TGI (COLO 205 colon) was 32.2 µM, the TGI (SN12C renal) was 46.5 µM and the TGI (CAKI-1 renal) was 57.9 µM. The TGI (HCT-116 colon) was 52.1 µM, the TGI (HCT-15 colon) was over 100 µM and the TGI (SK-OV-3 ovarian) was over 100 µM. The TGI (U251 CNS) was 54.8 µM, the TGI (BT-549 breast) was over 100 µM and the TGI (SNB-75 CNS) was 93 µM. For the same compound, the TGI (SNB-19 CNS) was over 100 µM, the TGI (HS 578T breast) was over 100 µM and the TGI (T-47D breast) was 73.9 µM. It also gave a TGI (UACC-62 melanoma) of 50.7 µM, a TGI (NCI-H226 lung) of over 100 µM and a TGI (UO-31 renal) of 53.5 µM. The TGI (CCRF-CEM leukemia) was over 100 µM, the TGI (ACHN renal) was 56.7 µM and the TGI (OVCAR-8 ovarian) was over 100 µM. The TGI (IGROV1 ovarian) was over 100 µM, the TGI (786-0 renal) was over 100 µM and the TGI (MCF7 breast) was 40.8 µM. The TGI (MOLT-4 leukemia) was over 100 µM, the TGI (LOX IMVI melanoma) was over 100 µM and the TGI (PC-3 prostate) was 49.8 µM. The TGI (TK-10 renal) was 84.5 µM, the TGI (HOP-92 NSCLC) was 64.8 µM and the TGI (SK-MEL-5 melanoma) was 37.8 µM. It also gave a TGI (NCI-H460 lung) of 62.4 µM, a TGI (HCC-2998 colon) of 63.7 µM and a TGI (HT29 colon) of over 100 µM. It also gave a TGI (SW-620 colon) of over 100 µM, a TGI (RXF 393 renal) of over 100 µM and a TGI (M14 melanoma) of 95.3 µM. For the same compound, the TGI (NCI-H23 lung) was 82.6 µM, the TGI (RPMI-8226 leukemia) was 95.4 µM and the TGI (OVCAR-5 ovarian) was 60.4 µM. For the same compound, the TGI (OVCAR-4 ovarian) was 38.6 µM, the TGI (SF-268 CNS) was over 100 µM and the TGI (NCI-H522 lung) was 77.7 µM. It also gave a TGI (A549 NSCLC) of over 100 µM.
